# Measurements published in a melting point compilation (Tetko et al.; mined from patent text by program, amines drawn as free bases though some values may be those of a salt).
row,SMILES,melting point
1,Fc1cccc([C@@H]2COCC(=S)N2)c1,124 to 125 °C
2,CCCOC(=NNC(=O)OC)OCCC,38.1 to 38.3 °C
3,CCNC(=O)Cn1nc(Nc2ccc3c(c2)OC(F)(F)O3)nc1-c1cc(C)nc(C)c1,242 °C
4,CN1CCN(C(=O)OC2C3=C(SCCS3)C(=O)N2c2ccc3cccnc3n2)CC1 (stereo unspecified),255 °C
5,Cc1ccc(C(=O)Cn2cncn2)cc1,118 °C
6,CC(Oc1ccc(Cl)cc1)c1ccnc2ncnn12 (stereo unspecified),98 to 99 °C
7,O=c1oc(-c2cccc(-c3ccccc3)c2)cc(O)c1SCCc1ccccc1,93 to 94 °C
8,CN(C)CCCN=C1CC(c2ccc(Cl)cc2Cl)Cc2c1c(=O)c1cc(Cl)ccc1n2O (stereo unspecified),172 to 174 °C
9,O=[N+]([O-])c1ccc(O)c(CSCC(O)CO)c1 (stereo unspecified),130 °C
10,Clc1ccc2[nH]c3c(c2c1)CN(CCc1ccc2ccccc2n1)CC3,187 to 190 °C
11,O=c1ccn(-c2ccccc2OC(F)F)nc1-c1ccnn1-c1ccccc1,123 to 124 °C
12,Cc1cc2c(cc1O)OC[C@@H](N1CCC(O)(c3ccc(F)cc3)CC1)[C@H]2O (relative stereo),174 °C
13,Cc1ccc(C)c2c1CCC2=NNC(N)=Nc1c(Cl)cccc1Cl,> 275 °C
14,O=C1c2ccccc2C(=O)N1Cc1ccc(/C=C/C(c2cc(Cl)cc(Cl)c2)C(F)(F)F)cc1Cl (stereo unspecified),141 to 143 °C
15,Cc1nc(-c2cc3c4ccccc4n(CCCCl)c3cn2)no1,130 to 135 °C
16,CCc1nc(-c2ccc(Cl)cc2)c(CCC(=O)O)o1,160 to 161 °C
17,Cc1c(NC(=O)c2ccc(-c3ccc(Cl)s3)cc2F)ccc2cc(CN3CCCCCC3)cnc12,166 to 167 °C
18,O=c1nc(-c2cccc(Cl)n2)sc2ccccc12,224 to 225 °C
19,CCCN1C(=O)C2(CC(C)C)CC(c3ccc(N)cc3)(C2)C1=O,86.5 to 87 °C

row,SMILES,melting point
1,OCC1COC(c2c(F)cccc2F)=N1 (stereo unspecified),82 °C
2,C=C(C)c1nnc(-c2cc3c([nH]c2=O)CCN(Cc2ccccc2)C3)o1,221 to 223 °C
3,COc1cc(CN2CCN(C(=S)C3(C)CCc4c(C)c(O)c(C)c(C)c4O3)CC2)cc(OC)c1OC (stereo unspecified),82 °C
4,N#Cc1cc(NC(=O)c2cc3ccccc3o2)ccc1OC1CCN(Cc2ccccc2)CC1,175 °C
5,O=c1[nH]c2ccc(C(F)(F)F)cc2c(-c2cc(Cl)ccc2O)c1NCc1ccccc1,215 to 217 °C
6,O=C1CCC(c2ccc(OCCBr)cc2)CC1,91 to 92 °C
7,NC(=O)c1ncn2c1nc(N1CCOCC1)c1ccccc12,> 300 °C
8,COc1ccc(Cc2cc(C(C)(C)C)cc(C(C)(C)C)c2O)cc1,84 to 85 °C
9,CC[C@@H]1N(c2ccc(C#N)c(Cl)c2)C(=O)C[C@]1(C)O,144 to 146 °C
10,CCOC(=O)CCN1C(=O)C(NC(=O)OCc2ccccc2)N=C(c2ccccc2)c2ccccc21 (stereo unspecified),57 to 59 °C
11,O=C(Cn1nnnc1-c1cc2ccccc2o1)OCCO,131 to 135 °C
12,CCOP(=S)(OCC)Oc1c(C(=O)c2ccccc2Cl)c(C)nn1C,71 to 74 °C
13,CCCCCCC/C=C\CCCCCCCC(=O)CCCNC(C)=O,51 to 52 °C
14,CC(=O)NCCN1CCCc2ccccc21,102 °C
15,CC1(C)C(C=CC(=O)OC2CC2)C1C(=O)OC(C#N)c1cccc(Oc2ccccc2)c1 (stereo unspecified),62 °C
16,CC(=O)/C(=C(/Br)I)c1ccccc1,53 to 55 °C
17,Cc1c(-c2ccccc2)n(-c2ccccc2)c(-c2ccc(C#N)cc2)cc1=O,229 to 233 °C
18,c1ccc(CSCC2CCn3c(nc4ccccc43)S2)cc1 (stereo unspecified),97 to 99 °C

# Further lines, results first:
row,melting point,SMILES
1,171 to 173 °C,COc1cccc2c(Nc3ccccc3C)c(C(C)=O)cnc12
2,194 to 195 °C,O=C(Cc1ccc(OCc2ccccc2)cc1)Nc1nnc(-c2cccc(Oc3cccc(C(F)(F)F)c3)c2)s1
3,63 to 65 °C,CCOC(=O)C(=CNC1CC1)C(=O)c1cc(F)c(F)c(F)c1F
4,247 to 248 °C,CN(C)c1cc2c(cc1Cl)NC(=O)CC(c1cccc(-c3csc(N)n3)c1)=N2
5,250 to 252 °C,Cn1c2ccc([N+](=O)[O-])cc2c2cc(C(=O)N3CCOCC3)sc21
6,81 to 83 °C,CC(C)(CNC(=O)COCC(=O)O)SN=O
7,120 to 121 °C,CCOC(=O)c1cn(Cc2ccccc2)nc1OCc1ccc(OCc2nc(-c3ccco3)oc2C)c(OCOC)c1
8,202 to 205 °C,CCOC(=O)c1ccc(N=C(Nc2ccc(C(=O)OCC)cc2)c2ccc([N+](=O)[O-])cc2)cc1
9,179 to 181 °C,O=Cc1ccc2c(c1)ncn2-c1cccc(Br)c1
10,156 to 157 °C,Nc1nnc(-c2ccc(CN3CCCCCC3)s2)s1
11,247 °C,O=C(O)COC1=C(C(=O)Nc2cc(Cl)cc(Cl)c2)SC2=NCCCN21
12,141 to 142 °C,CNc1c(OC)cc(C(O)CS(C)(=O)=O)cc1OC (stereo unspecified)
13,165 to 166 °C,C=C(C)C(=O)NC(=O)Nc1ccccc1
14,66 °C,CCN(CC(F)(F)F)c1cccc([N+](=O)[O-])c1
15,164 to 165 °C,CCCCCCOc1ccc(-n2cc(C(=O)O)cn2)cc1C#N
16,157 to 159 °C,CCC(C)N1CC(C)=CC2=C1N1CN(OC)C=C1N=N2 (stereo unspecified)
17,285 to 287 °C,Cn1cnc2c1c(=O)n(CCCN1CCN(c3ccc(Cl)nn3)CC1)c(=O)n2C

row,melting point,SMILES
1,91 °C,CC(=O)OCC1OC(N(CCCl)P(=O)(O)NCCCl)C(OC(C)=O)C(OC(C)=O)C1OC(C)=O (stereo unspecified)
2,144 to 145 °C,CC(C)(C)c1cc(C(=NNc2ccccc2)c2ccccc2)cc(C(C)(C)C)c1O
3,198 to 199 °C,Nc1nnc(SCC(=O)C23CC4CC(CC(C4)C2)C3)s1
4,152 to 154 °C,O=C(O)CCC(CSc1nc2ccccc2s1)C(=O)O (stereo unspecified)
5,161 °C,Cc1ccccc1S(=O)(=O)n1c(CCCC(=O)O)cc2nc(Cl)ccc21
6,79.3 °C,COC(=O)c1ccc(Br)cc1CSC
7,244 to 245 °C,CC1(C)Oc2cc([N+](=O)[O-])c(N)cc2[C@@H](N2CCCC2=O)[C@@H]1O (relative stereo)
8,186 to 188 °C,COc1cc(OCCN2CCOCC2)c(C=CC(=O)c2ccc(S(N)(=O)=O)cc2)cc1-c1cccs1
9,204 to 206 °C,CC(C)c1cc2nc(N)sc2cc1Sc1ccc(CCc2ccc(F)cc2)c(CCC2=C(O)CC(C(C)C)OC2=O)c1 (stereo unspecified)
10,91 to 93 °C,O=C(O)C1=C(C(=O)Nc2ccc(Cl)cc2F)CCCC1
11,84 to 87 °C,CCCCCCCCCCCCCCOc1ccc(C(=O)N(CC(=O)O)CC(=O)O)cc1OCCCCCCCCCCCCCC
12,144 °C,CC1C(=O)N(c2ccc(Cl)cc2)C(=S)N1c1ccc(Cc2ccccc2)cc1 (stereo unspecified)
13,230 to 232 °C,O=C(Nc1cnc2c(c1)CCN2)c1cc2cc(F)ccc2n1Cc1cccc(F)c1
14,124 to 125 °C,Cc1ccc(Cn2c(=O)c(-c3ccccc3)c3n(c2=O)CC=CS3)cc1
15,83.6 to 84.2 °C,COCc1c(Cl)ccc(C(=O)c2cnoc2C2CC2)c1S(C)(=O)=O
16,198 to 199 °C,O=C(NNc1ccc(NC(=S)Nc2ccccc2)cc1)c1ccc(Cl)cc1
17,55 to 56 °C,C=CC(=O)OCc1cn(-c2ccccc2)nn1
